Data taken from PMC4383003, “Transfer hydrogenation catalysis in cells as a new approach to anticancer drug design” (Nature Communications, 2015).

Columns and labels:
Type in all cases: cell-based, human
[1] = test system: A2780 ovarian cancer cells; test: IC50 of complex 2 on co-administration with formate; settings: A2780, formate 0 mM
Description: The antiproliferative activity towards A2780 ovarian cancer cells of complex 2 when co-administered with 2 mM sodium formate was determined. These experiments were performed as described above, using a fixed concentration of formate and variable concentrations of the Ru complex. The SRB assay was used to determine cell viability. IC50 values were determined as duplicates of triplicates in two independent sets of experiments and their s.d. were calculated.
Supplementary Table 8: Antiproliferative activity of complex 2 in A2780 ovarian cancer cells when co-administered with different concentrations of sodium formate (0, 0.5, 1 and 2 mM) and amount of Ru accumulated by the cells. All the experiments were performed as duplicates of triplicates in independent experiments and the error bars were calculated as the standard deviation from the mean.
Formate concentration (mM)

[2] = test system: A2780 ovarian cancer cells; test: Ruthenium accumulation in cancer cells (ICP-MS)
Description: Briefly, 1.5 × 10^6 cells per well were seeded on a six-well plate. […] After this time, cells were washed, treated with trypsin-EDTA, counted and cell pellets were collected. Each pellet was digested overnight in concentrated nitric acid (73%) at 353 K; the resulting solutions were diluted using double-distilled water to give a final concentration of 5% HNO3 and the amount of Ru taken up by the cells was determined by ICP–MS. […]
Supplementary Table 3: Antiproliferative activity of complexes 1-8 in A2780 ovarian cancer cells and their cellular accumulation (expressed as ng Ru per million cells).
The latter experiments were carried out using equipotent concentrations of the […]
experiments were performed as duplicates of triplicates in independent experiments and the error bars were calculated as the standard deviation from the mean. […]

[3] = test system: A2780 cells; test: ROS determination by flow cytometry; settings: A2780, complex 2 and 2 mM sodium formate, 24 h
Description: Flow cytometry analysis of total induction of ROS in A2780 cells caused by exposure to complex 2 and sodium formate was carried out using the Total ROS detection kit (Enzo Life Sciences) according to the supplier’s instructions. Briefly, 1.0 × 10^6 A2780 cells per well were seeded in a six-well plate. […] After 24 h of drug exposure, supernatants were removed by suction and cells were washed and harvested. Staining was achieved by resuspending the cell pellets in buffer containing the green fluorescent reagent. Cells were analysed in a Becton Dickinson FACScan Flow Cytometer using Ex/Em: 490/525 nm for the oxidative stress detection. Data were processed using Flowjo software. The experiment included cells treated with pyocyanin for 30 min as positive control.

Cc1ccc(C(C)C)cc1.Cc1ccc(S(=O)(=O)[N-]CCN)cc1.[Cl-].[Ru+2] [Complex 2, [(p-cym)Ru(TsEn)Cl]]
IC50 [1]: 13.6 ± 0.6 µM
Cell Ru ([2]; A2780, 1/3 x IC50, 24 h drug exposure, no recovery time): 0.15 ± 0.04 ng x 106 cells
Cell accum. ([2]; A2780, 24 h, 1/3 x IC50): 0.15 ng Ru/10^6 cells
dependence of cellular accumulation of ruthenium on amount of formate added ([2]; A2780, complex 2 4.5 μM): no significant dependence
Cell Ru ([2]; A2780, complex 2, formate 0 mM): 0.15 ± 0.03 ng x 106 cells
Cell Ru ([2]; A2780, complex 2, formate 0.5 mM): 0.145 ± 0.009 ng x 106 cells
Cell Ru ([2]; A2780, complex 2, formate 1 mM): 0.129 ± 0.005 ng x 106 cells
Cell Ru ([2]; A2780, complex 2, formate 2 mM): 0.13 ± 0.02 ng x 106 cells
levels of reactive oxygen species (ROS) in treated cells [3]: comparable to those arising from treatment with N-acetyl-L-cysteine
